Literature values in patent US7276228B2, “Methods for treating hematological disorders through inhibition of DNA methylation and histone deacetylase” (SuperGen, Inc., priority 2001, dated 2007).

Columns and labels:
HDAC = details: for concentration at which HDAC activity is inhibited: literature statements
mammalian HDAC = details: Yoshida et al. (1990)
DNA methyltransferase = details: decitabine replacing 5-methylcytosine at a site of methylation in DNA; Juttermann et al. (1994)

## O=C(/C=C/c1cccc(C(=O)NO)c1)NO [CBHA, m-carboxy-cinnamic acid bishydroxamic acid]
HDAC; in vitro or in vivo, Glick et al. (1999)
  concentration at which HDAC is inhibited: micromolar concentration or lower

## C/C=C1\NC(=O)[C@H]2CSSCC/C=C/[C@H](CC(=O)N[C@H](C(C)C)C(=O)N2)OC(=O)[C@H](C(C)C)NC1=O [FR901228]
HDAC
  concentration at which HDAC activity is inhibited: micromolar concentrations

## CC(/C=C/C(=O)NO)=C\[C@@H](C)C(=O)c1ccc(N(C)C)cc1 [TSA, trichostatin A]
Mammalian HDAC
  inhibition of mammalian HDAC: potent inhibitor

## Nc1ncn([C@H]2C[C@H](O)[C@@H](CO)O2)c(=O)n1 [decitabine, 5-aza-2′-deoxycytidine]
DNA methyltransferase
  inactivation of DNA methyltransferase: irreversible inactivation

## depudecin
HDAC
  concentration at which HDAC activity is inhibited: micromolar concentrations
